Data set [1] can be described thus: Solution test: time taken for complete dissolving in ethanol/water. Particulars: 5 g in 95 g ethanol/water (equal weight contents), 20° C., stirred, optical determination. Type of data set: physicochemical. As for the experimental part: The various rates of solution of a solids composition according to the invention according to Example 1a above and forms of I-menthol which are not according to the invention were compared.
For this, in each case 5 g I-menthol or 5 g of the I-menthol-containing solids composition according to the invention according to Example 1a were added to 95 g of a mixture, temperature-controlled at a constant 20° C., of equal weight contents of ethanol and water and the time taken for complete dissolving (optical determination) of the menthol and of the menthol-containing solids composition was determined.
The particular solution test was carried out in a glass beaker having a diameter of 5 cm and a filling height of 7 cm. The contents of the glass beaker were in each case stirred with a 4 cm long magnetic stirring fish at a magnetic stirrer speed of 4 revolutions per second during the solution test. The temperature was monitored with a Pt-100 thermometer, which was immersed 5 cm deep into the liquid, was placed at a distance of 1 cm from the glass beaker wall and simultaneously served as a baffle.
The size of the crystals here corresponded to the typical (commercially available) crystal geometry of natural I-menthol.

Data set [2] is described as follows: Storage test for caking or formation of lumps (optical and mechanical flowability check). Type of data set: physicochemical. As to conditions: storage times of more than three months. As for the experimental part: In this context, a solid menthol component consisting of bodies in the form of crystals or pressed pieces was employed. The menthol-containing solids composition according to the invention which was investigated remained convenient and reliable to handle and pourable, flowable and meterable over the entire observation period.
This menthol-containing solids composition was packed in a plastic bag in a cube-shaped box and stored at 20° C. (bulk height: 50 cm). Every 14 days, the composition according to the invention was investigated optically and mechanically for its flowability.
I-Menthol (25 kg) in the form of freshly prepared needle-shaped crystals (for the particle distribution, see Example 1) was initially introduced into a mixer and mixed briefly and intensively with various amounts of magnesium oxide (calculated average particle size: 12.8 nm, specific BET surface area: 130 m^2/g, compare Example 1a). The content of magnesium oxide (solid anticaking agent) in the total solids mixture was 0.5 wt. %, 1 wt. %, 2 wt. % or 4 wt. %. The original menthol crystals were comminuted by the mixing operation (compare Example 1a). The menthol-containing solids compositions having various contents of magnesium oxide were each packed in a plastic bag in a cube-shaped box and stored at 20° C. (bulk height: 50 cm). […]

The conditions of data set [3]: after 24 hours; cited from earlier work.

This is an account of results in patent US20080194883A1, “Menthol-Containing Solids Composition” (SYMRISE GMBH & CO. KG, priority 2005, published 2008).

On to `CC(C)[C@@H]1CC[C@@H](C)C[C@H]1O` [Crystals of natural menthol, I-menthol], for which, in data set [1], the “Time taken for complete dissolving” value was found to be 255 s. Regarding `CC(C)[C@@H]1CC[C@@H](C)C[C@H]1O` [Menthol crystals from Example 1, I-menthol], the “Time taken for complete dissolving” value in data set [1] was determined as 170 s. As for `CC(C)[C@@H]1CC[C@@H](C)C[C@H]1O` [Menthol crystals in lump form, obtained by storage of the me] [I-menthol], the “Time taken for complete dissolving” value in data set [1] stood at 280 s. For `CC1CCC(C(C)C)C(O)C1` (stereo not drawn) [Menthol], the “Time taken for complete dissolving” value in data set [1] was 504 s. Also, the “formation of lumps and caking on storage” value in data set [2] is “gradually form lumps and cake”. With `CC(C)[C@@H]1CC[C@@H](C)C[C@H]1O` [flaked I-menthol, I-menthol], the “adhesion and formation of lumps on storage” value in data set [3] is “adhesion and formation of lumps”.
